Laboratory results published in US10179777B2, “3-(1H-benzimidazol-2-yl)-1H-pyridin-2-one derivatives” (MERCK PATENT GMBH, priority 2015, dated 2019).
Where a name gives a salt, the structure may show the parent alone.

Legend:
[1] = system: ALK1-mediated SMAD1/5 phosphorylation in HUVEC cells; test: Cell-based immunofluorescence assay for ALK1-mediated SMAD1/5 phosphorylation in HUVEC cells; settings: Homo sapiens, 1.5 ng/ml BMP-9 with compound for 2 h, % nuclei with pSMAD1/5 signal, read-out: Smad 1/5 IC50
Source text: In vitro cell-based Immunofluorescence-Assay for identification of inhibitors of ALK1-mediated SMAD1/5 phosphorylation in HUVEC cells:
ALK1 is a type I cell-surface receptor for the TGF-β superfamily of ligands. In adults ALK1 is mainly expressed on activated endothelial cells, e.g. during wound healing or in tumor angiogenesis. BMP9 and BMP10 are high affinity ligands for ALK1.
BMP9 and BMP10 binding leads to the phosphorylation of so-called Smad1 at Ser463 and Ser465 in the carboxy-terminal motif SSXS, as well as Smad5 and Smad8 at their corresponding sites. These phosphorylated Smads dimerize with the coactivating Smad4 and translocate to the nucleus, where they stimulate transcription of target genes.
Primary endothelial cells (HUVEC: Human Umbilical Vein Endothelial Cells; supplier Promocell) are cultivated in the culture medium obtained from Promocell (with supplements corresponding to 5% FCS) for maximum 5 passages, seeded into black 384-well culture plates with clear bottom (3000 cells/well/30 μl), and incubated for 16-24 hours at 37° C., 5% CO2 and 90% rH.
The following day cells were serum-starved for 2-3 h in order to stop TGF-ß-mediated signalling derived from ligands present in FBS. 1.5 ng/ml BMP-9 was than added in parallel with test compounds for 2 h at 37° C., 5% CO2 in order to identify compounds which block functional activity of ALK1 leading to phosphorylation and nuclear translocation of SMAD1/5/8.
After fixation (15 min 4% Formaldehyd in PBS) and permeabilization (10 min 0.2% Triton X-100 in PBS) an indirect immunocytochemical staining is performed with a specific Phospho-Smad1/5 (Ser463/465) antibody (Cell Signaling #9516) and Alexa488-labelled secondary anti-rabbit-IgG-antibody. DNA staining with Propidium Iodide allowed parallel cell counting. Image acquisition and analysis was performed on an MDS ImageXpress Ultra confocal High Content Reader using the image analysis software MetaXpress. Final read-out were % nuclei with a pSMAD1/5 signal above a defined background.
The final DMSO concentration in the assay was 0.5%. DMSO-treated HUVEC cells served as neutral control (=0%) and cells treated with 10 μM of a reference inhibitor described in a patent served as inhibitor control (=−100%). Raw data were normalised to the neutral and inhibitory references. The assay was performed as dose response (10 compound dilutions, 1 nM-30 μM).

[2] = target: T1, ALK2 (GST-modified kinase domain ACVR1(145-509)) (Homo sapiens, UniProt Q04771); test: ALK2 kinase inhibition assay (33P-ATP filter binding, Reaction Biology); type: biochemical; settings: casein substrate, 20 μM ATP (Km ATP), 120 min ambient temperature
T1 construct: N-terminally GST-modified kinase domain ACVR1(145-509); GST (N)
T1 sequence (Q04771 145-509): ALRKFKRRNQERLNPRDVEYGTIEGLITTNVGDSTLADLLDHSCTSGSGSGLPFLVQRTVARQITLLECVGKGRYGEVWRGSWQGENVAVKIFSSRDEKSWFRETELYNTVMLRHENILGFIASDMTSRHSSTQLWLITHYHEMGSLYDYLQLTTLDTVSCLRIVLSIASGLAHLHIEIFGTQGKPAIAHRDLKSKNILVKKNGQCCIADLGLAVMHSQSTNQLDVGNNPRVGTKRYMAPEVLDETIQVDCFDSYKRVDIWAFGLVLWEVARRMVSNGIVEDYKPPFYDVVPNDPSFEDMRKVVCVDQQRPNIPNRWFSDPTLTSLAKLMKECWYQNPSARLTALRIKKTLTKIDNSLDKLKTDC
Protocol: (§1) The protein sequences of the kinases targeted and accompanying information are described in publically available data base http://www.uniprot.org/uniprot/for ALK1 www.uniprot.org/uniprot/P37023, for ALK2 www.uniprot.org/uniprot/Q04771 and for ALK5 www.uniprot.org/uniprot/P36897. IC50 determination of the novel inhibitors described was performed at Reaction Biology Corp., Malvern, Pa., USA, with assay conditions open to public at www.reactionbiology.com/webapps/site/KinaseDetail.aspx?page=Kinases&id=1, and www.reactionbiology.com/webapps/site/Kinase Assay Protocol.aspx. In addition, they were specified previously in Anastassiadis et al. Nat. Biotechnol. 29(11): 1039-1045. doi:10.1038/nbt.2017.
A2) ALK2 Kinase Inhibition Assay
(§2) was performed similar to procedure A1 with N-terminally GST-modified kinase domain ACVR1(145-509) and 1 mg/ml Casein as substrate in reaction buffer of 20 mM HEPES pH 7.5, 10 mM MgCl2, 1 mM EGTA, 0.02% Brij, 0.02 mg/ml BSA, 0.1 mM Na3VO4, 2 mM DTT, 1% DMSO. […] Reactions were carried out at ambient temperature for 120 min, followed by spotting of the reactions onto P81 ion exchange filter paper (Whatman Inc., Picataway, N.J., USA). Unbound phosphate was removed by extensive washing of filters in 0.75% phosphoric acid. After subtraction of background derived from control reactions without enzyme activity, kinase activity data was expressed as the percent remaining kinase activity in test samples compared to vehicle (DMSO) reactions. IC50 values and curve fits were obtained using Prism (GraphPad Software).

[3] = target: T2, ALK1 (GST-modified kinase domain ACVRL1 (139-503)) (Homo sapiens, UniProt P37023); test: ALK1 kinase inhibition assay (33P-ATP filter binding, Reaction Biology); type: biochemical; settings: casein substrate, 100 μM ATP (Km ATP), 120 min ambient temperature
T2 construct: N-terminally GST-modified kinase domain ACVRL1 (139-503); GST (N)
T2 sequence (P37023 139-503): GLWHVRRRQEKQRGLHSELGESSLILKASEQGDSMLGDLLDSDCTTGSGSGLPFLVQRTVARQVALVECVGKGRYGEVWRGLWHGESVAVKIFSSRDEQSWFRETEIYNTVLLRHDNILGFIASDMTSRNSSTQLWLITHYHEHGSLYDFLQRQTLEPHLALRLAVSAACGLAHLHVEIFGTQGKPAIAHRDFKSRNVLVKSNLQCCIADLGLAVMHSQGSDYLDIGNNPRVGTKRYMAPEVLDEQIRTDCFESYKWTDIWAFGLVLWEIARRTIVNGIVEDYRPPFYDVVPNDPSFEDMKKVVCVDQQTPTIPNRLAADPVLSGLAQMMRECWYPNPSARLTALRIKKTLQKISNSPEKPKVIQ
Protocol: as §1
A1) ALK1 Kinase Inhibition Assay
as §2, with “performed” for “performed similar to procedure A1”, “domain ACVRL1 (139-503)” for “domain ACVR1(145-509)”, “and 20” for “and 1”

[4] = target: T3, ALK5 (TGFβR1; GST-modified TGFBR1 (200-503)) (Homo sapiens, UniProt P36897); test: ALK5 kinase inhibition assay (33P-ATP filter binding, Reaction Biology); type: biochemical; settings: casein substrate, 200 μM ATP
T3 construct: Using GST-Modified TGFBR1 (200-503); GST
T3 sequence (P36897 200-503): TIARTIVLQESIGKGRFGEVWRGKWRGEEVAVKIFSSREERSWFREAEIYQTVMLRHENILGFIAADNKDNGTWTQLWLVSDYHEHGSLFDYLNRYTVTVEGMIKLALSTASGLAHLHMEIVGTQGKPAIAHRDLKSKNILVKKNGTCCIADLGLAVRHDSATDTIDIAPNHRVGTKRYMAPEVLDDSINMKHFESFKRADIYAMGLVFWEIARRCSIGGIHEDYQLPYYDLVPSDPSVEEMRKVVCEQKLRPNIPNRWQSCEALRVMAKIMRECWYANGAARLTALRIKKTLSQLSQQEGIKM
Protocol: as §1
A3) ALK5 Kinase Inhibition Assay Was Performed Similar to Procedures A1 and A2 Using GST-Modified TGFBR1 (200-503) and 1 mg/ml Casein as Substrate at 200 μM ATP.

| IC50 [2] | IC50 [3] | IC50 [4] | Compound | IC50 [1] |
| --- | --- | --- | --- | --- |
| 31 nM | 5 nM | 1900 nM | NC1CCN(c2ccc3[nH]c(-c4cc(-c5cccc(CO)c5)c[nH]c4=O)nc3c2)CC1 [Compound A26, 3-[5-(4-Amino-piperidin-1-yl)-1H-benzimidazol-2-yl]-5-(3-hydroxymethyl-phenyl)-1H-pyridin-2-one dihydrochloride] | 1800 nM |
| 23 nM | 8.6 nM | 5100 nM | O=c1[nH]cc(-c2cc(F)c(CO)c(F)c2)cc1-c1nc2cc(N3CCNCC3)ccc2[nH]1 [Compound A21, 5-(3,5-Difluoro-4-hydroxymethyl-phenyl)-3-(5-piperazin-1-yl-1H-benzimidazol-2-yl)-1H-pyridin-2-one dihydrochloride] | 6100 nM |
| 19 nM | 24 nM | 4400 nM | O=c1[nH]cc(-c2ccc(F)c(CO)c2)cc1-c1nc2cc(N3CCNCC3)ccc2[nH]1 [Compound A20, 5-(4-Fluoro-3-hydroxymethyl-phenyl)-3-(5-piperazin-1-yl-1H-benzimidazol-2-yl)-1H-pyridin-2-one] | 7800 nM |
| 22 nM | 2 nM | 1600 nM | O=c1[nH]cc(-c2cccc(CO)c2F)cc1-c1nc2cc(N3CCNCC3)ccc2[nH]1 [Compound A23, 5-(2-Fluoro-3-hydroxymethyl-phenyl)-3-(5-piperazin-1-yl-1H-benzimidazol-2-yl)-1H-pyridin-2-one] | 130 nM |

The remaining lines, values behind:

| Compound | IC50 [2] | IC50 [3] | IC50 [4] | IC50 [1] |
| --- | --- | --- | --- | --- |
| CN1CCC(Oc2ccc3[nH]c(-c4cc(-c5ccnc6ccccc56)c[nH]c4=O)nc3c2)CC1 [Compound A59, 3-[6-(1-Methyl-piperidin-4-yloxy)-1H-benzimidazol-2-yl]-5-quinolin-4-yl-1H-pyridin-2-one] | 80 nM | 170 nM | 2500 nM | 12000 nM |
| O=c1[nH]cc(-c2ccnc3[nH]ccc23)cc1-c1nc2cc(N3CCCCC3)ccc2[nH]1 [Compound A43, 3-(5-Piperidin-1-yl-1H-benzimidazol-2-yl)-5-(1H-pyrrolo[2,3-b]pyridin-4-yl)-1H-pyridin-2-one] | 37 nM | 45 nM | 870 nM | 1800 nM |
| O=c1[nH]cc(-c2ccnc3[nH]ccc23)cc1-c1nc2cc(Oc3ccncc3)ccc2[nH]1 [Compound A40, 3-[5-(Pyridin-4-yloxy)-1H-benzimidazol-2-yl]-5-(1H-pyrrolo[2,3-b]pyridin-4-yl)-1H-pyridin-2-one] | 56 nM | 73 nM | 8100 nM | 5200 nM |
| CN1CCN(c2ccc3[nH]c(-c4cc(-c5cnc6[nH]ccc6c5)c[nH]c4=O)nc3c2)CC1 [Compound A51, 3-[6-(4-Methyl-piperazin-1-yl)-1H-benzimidazol-2-yl]-5-(1H-pyrrolo[2,3-b]-pyridin-5-yl)-1H-pyridin-2-one] | 100 nM | 120 nM | 10000 nM | 5600 nM |
| CN(C)C1CCN(c2ccc3[nH]c(-c4cc(-c5cccc(CO)c5)c[nH]c4=O)nc3c2)CC1 [Compound A36, 3-[5-(4-Dimethylamino-piperidin-1-yl)-1H-benzimidazol-2-yl]-5-(3-hydroxymethyl-phenyl)-1H-pyridin-2-one formate] | 22 nM | 2.9 nM | 1100 nM | 240 nM |
| Cc1[nH]c2ncccc2c1-c1c[nH]c(=O)c(-c2nc3cc(N4CCN(C)CC4)ccc3[nH]2)c1 [Compound A52, 3-[5-(4-Methyl-piperazin-1-yl)-1H-benzimidazol-2-yl]-5-(2-methyl-1H-pyrrolo-[2,3-b]pyridin-3-yl)-1H-pyridin-2-one] | 17 nM | 29 nM | 480 nM | 2600 nM |
| CN1CCCN(c2ccc3[nH]c(-c4cc(-c5cccc(CO)c5)c[nH]c4=O)nc3c2)CC1 [Compound A33, 5-(3-Hydroxymethyl-phenyl)-3-[5-(4-methyl-[1,4]diazepan-1-yl)-1H-benzimidazol-2-yl]-1H-pyridin-2-one] | 11 nM | 14 nM | 1900 nM | 900 nM |
| CN1CCCN(c2ccc3[nH]c(-c4cc(-c5ccnc6[nH]ccc56)c[nH]c4=O)nc3c2)CC1 [Compound A49, 3-[5-(4-Methyl-[1,4]diazepan-1-yl)-1H-benzimidazol-2-yl]-5-(1H-pyrrolo-[2,3-b]pyridin-4-yl)-1H-pyridin-2-one] | 26 nM | 1.4 nM | 280 nM | 3700 nM |
